The values that follow come from PMC2941486 (Journal of Biomedical Science, 2010).

Each structure is given as a SMILES string. Marks after values point to notes of the source that are not given here. Square brackets hold non-standard residues; d marks the D form. Peptide text beside a SMILES is read from it. Dopa = N[C@@H](Cc1ccc(O)c(O)c1)C(=O)O; dPhg = N[C@@H](C(=O)O)c1ccccc1

The nature of data set [1]: Stability in rat intestinal mucosa suspension. In kind it is in vitro ADME. The conditions noted are these: pH 6.5 isotonic buffer, 37°C. Here is the method:
Mucosa suspension was prepared from the intestine of male Wistar rats according to established method and was stored in an ice bath before use.
The stability of d-phenylglycine-l-dopa in the intestine was determined prior to the intestinal absorption studies. In order to simulate intestinal microclimate pH, the compound was incubated with the intestinal mucosal suspension in a pH 6.5 isotonic buffer solution. l-Gly-l-Phe comprising essential amino acids degraded rapidly with only 50% of recovery after 2 min of incubation. d-Phenylglycine-l-dopa, on the other hand, was very stable with almost 100% of recovery after 90 min of incubation (Figure 3).
Figure 3 Comparison of the stability of d-phenylglycine-l-dopa and l-Gly-l-Phe in rat intestinal mucosa suspension. Each point represents mean ± SE. of 3 experiments. A methanolic solution (100 μl) of the test compound (1 mg/ml) was diluted with an isotonic mannitol buffer solution (pH 6.5, 2.4 ml) as the stock solution. This stock solution (1 ml) was mixed with the freshly prepared mucosal suspension (1 ml). The mixture was incubated in a water bath at 37°C and subjected to sampling at intervals between zero to 90 min of incubation. Each sampled solution (200 μl) was denatured with 0.8 ml of MeOH and centrifuged at 6,600 g for 5 min. Each of the supernatant (20 - 100 μl) was subjected to HPLC assay.

Data set [2] can be described thus: Pharmacokinetics after i.v. and oral administration. The conditions noted are these: for AUC / half-life / clearance / Vd / Tmax: Wistar, rat, plasma, 5.97 mg/kg; for clearance: read-out: Clp; for Vd: read-out: Vdss; for Fraction of absorption (BA): oral vs i.v., Equation 1, rats. In kind it is in vivo, Wistar rats. Here is the method:
Rats were fasted for at least 18 h prior to drug administration. Anaesthesia was induced by i.p. injection of urethane (0.15 g/100 g body weight). The rats were put under a heating lamp to maintain body temperature.
The HPLC system used in the assay of biological samples consisted of an autosampler (AS950, Jasco, Tokyo, Japan), a Waters Model 600E solvent delivery pump (Millipore, Milford, MA, USA), a Model LC-4C electrochemical detector with a glassy-carbon electrode (Bioanalytical Systems, Inc., West Lafayette, IN, USA), and an integrator (Macintosh LC II with Macintegrator I). A Nucleosil® 10 SA cationic ion-exchange column (10 μm, 300 × 4.0 mm, Macherey-Nagel, Düren, Germany) with a mobile phase comprising NaCl (50 mM) and Na2-EDTA (1.0 mM) in 0.1 M ammonium phosphate buffer (pH 2.0) at a flow rate of 2.0 ml/min was used for the elution of the samples. […] HPLC assay methods were validated by determining the precision and accuracy of intra-day and inter-day analysis of serum standards over a period of 6 days. The coefficients of variation for inter- and intraday assays were less than 15% for both compounds (n = 6).
According to the literature, the area under the plasma concentration-time profile (AUC) was calculated by log-linear trapezoidal rule. Plasma concentration after i.v. administration of drugs were also fitted to a […] model using PCNONLIN and Akeike's Information Criteria, sum of squared residuals, residual plot and correlation coefficient were use for determination of the compartment model. The residual area after the last observed data point was calculated as Clast/k, where Clast is the last observed concentration, and k is the corresponding terminal rate constant. Terminal half-life (t1/2) was estimated compartment model-independently. The fraction of absorption was calculated according to Equation 1.
(1) BA=AUCoral⋅koral/doseoral/AUCiv⋅kiv/doseiv×100%
Blood samples were collected from the carotid artery at time intervals of from 1 to 180 min. Heparin sodium (25 I.U./ml in 0.3 ml of saline) was added to blood samples, and were then centrifuged at 6,600 g for 5 min. Plasma was stored at -78°C until being analyzed. A 200 μl of the plasma sample in a 10 ml test tube was mixed with 500 μl of 1.0 M Tris buffer (pH 8.6, adjusted by EDTA-2Na^+) and 10 μl of 3,4-dihydroxybenzylamine (DHBA, 2 μg/ml) was added as internal standard. Alumina 100 mg was then added and then shake for 15 sec and the supernatant was decanted. The alumina was washed four times with 5 ml of water, and the adsorbed compounds on the alumina was eluted with 200 μl of an acidic solution (0.9 ml of glacial acetic acid in 4.0 ml of 1.0 M phosphate buffer). A 30 μl of the eluent was then analyzed by HPLC.

The next data set relates to striatal dopamine. Nature of the data set: Brain microdialysis of striatal dopamine after i.v. injection. In kind it is in vivo, Sprague-Dawley rats. The conditions noted are these: after i.v. injection 50 mg/kg. The protocol:
Single dose d-phenylglycine-l-dopa (50 mg/kg in 2.5 mL of normal saline) was administered i. v. via femoral vein to anesthetized male Sprague-Dawley rats (280 - 320 g). The body temperature of the rats was maintained at 37°C with a heating pad throughout the experiment. The rat was immobilized in a stereotaxic frame (David Kopf Instruments, Tujunga, CA, USA), the skull was surgically exposed, and a hole was drilled with a trephine into the skull based on stereotaxic coordinates. The brain microdialysis system consisted of a CMA/100 microinjection pump (CMA, Stockholm, Sweden) and a microdialysis probe. The dialysis probes (3 mm in length) were made of silica capillary in a concentric design with their tips covered by dialysis membrane (Spectrum, 150 μm outer diameter with a cut-off at nominal molecular mass of 13000, Laguna Hills, CA, USA). The probe was placed into right striatum (0.2 mm anterior to bregma and 3.2 mm lateral to midline) and perfused with Ringer's solution (147 mM Na+; 2.2 mM Ca++; 4 mM K+; pH 7.0) at a flow-rate of 1 μl min^-1. The position of each probe was verified at the end of experiments. The dialysates was collected at 10 min intervals and aliquots of 10 μl was assayed by microbore HPLC. […]

Data set [3] can be described thus: In situ single-pass jejunal perfusion. The conditions noted are these: for Blood concentration: steady-state plasma concentration after jejunal perfusion, l-dopa detected in only one of three rats. In kind it is in vivo, rat. The protocol: Literature procedure was followed for the preparation of perfusion solutions and the jejunal segments. To maximize the absorption and to prevent the test compounds from being oxidized during perfusion, the experiments were performed at pH 6.0 with 0.02% (w/v) ascorbic acid added as antioxidant and nitrogen gas was bubbled through for 10 min before each experiment. Perfusion solution was pumped through the jejunal segment at a flow rate of 0.2 ml/min by a syringe pump (Stoelting, KD Scientific, U.S.A.). The jejunal segment was pre-washed with drug-free buffer for 10 min before the drug solution was pumped in. Outlet tubing samples were collected every 10 min for 6 collection periods after water and solute transport reached steady-state. The dimensionless membrane permeability Pm* [28] was measured as indications for the disappearance rate of test compound from the intestine. Plasma samples were withdrawn from carotid artery.
The absorption of d-phenylglycine-l-dopa and l-dopa was compared in rats by in situ single-pass jejunal perfusion experiments. Amidon's dimensionless cross-membrane permeability (Pm*) was determined as a parameter of intestinal absorption. The steady-state plasma concentration was also determined (Table 1).

Data set [4] addresses T1, intestinal peptide transporter I (PepT1) (Rattus norvegicus, UniProt P51574).
T1 construct: brush-boarder membrane vesicle (BBMV) prepared from rat intestine; from tissue; host or cells: rat intestine, brush-border membrane vesicles made by magnesium precipitation
T1 sequence (P51574 1-710): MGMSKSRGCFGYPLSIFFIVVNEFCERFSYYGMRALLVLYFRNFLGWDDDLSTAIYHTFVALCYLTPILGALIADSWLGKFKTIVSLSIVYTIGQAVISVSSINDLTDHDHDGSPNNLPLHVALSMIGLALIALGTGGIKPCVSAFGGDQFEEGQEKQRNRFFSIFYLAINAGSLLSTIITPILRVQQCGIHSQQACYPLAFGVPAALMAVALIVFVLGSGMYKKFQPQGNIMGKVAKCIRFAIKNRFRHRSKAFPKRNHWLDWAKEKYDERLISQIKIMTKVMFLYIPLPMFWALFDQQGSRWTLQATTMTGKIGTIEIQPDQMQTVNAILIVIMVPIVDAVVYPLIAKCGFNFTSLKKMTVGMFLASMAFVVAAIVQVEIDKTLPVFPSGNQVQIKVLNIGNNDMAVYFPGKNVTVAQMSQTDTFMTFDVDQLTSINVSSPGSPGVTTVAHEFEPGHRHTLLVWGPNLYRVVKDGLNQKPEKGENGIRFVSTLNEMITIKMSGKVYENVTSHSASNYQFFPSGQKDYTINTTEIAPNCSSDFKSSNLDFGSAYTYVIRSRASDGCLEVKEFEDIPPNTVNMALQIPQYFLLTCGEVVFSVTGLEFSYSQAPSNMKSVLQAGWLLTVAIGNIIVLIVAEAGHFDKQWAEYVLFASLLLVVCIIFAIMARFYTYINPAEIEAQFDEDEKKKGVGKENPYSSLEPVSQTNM
Nature of the data set: BBMV uptake of d-phenylglycine-l-dopa with or without competitors. In kind it is in vitro ADME. The conditions noted are these: pH 7.4, room temperature.

Data set [5] deals with 6-OHDA-treated unilateral striatal-lesioned rats. The conditions noted are these: 10 mg/kg.
Where [6] appears, read: oral, dose equivalent to 5.97 mg/kg l-dopa, rats.

One may read the AUC as concentration integrated over time. By half-life is commonly meant the time in which the quantity being followed falls by half. The Tmax is the time at which the peak concentration occurs. On to `N[C@@H](C(=O)N[C@@H](Cc1ccc(O)c(O)c1)C(=O)O)c1ccccc1` [d-phenylglycine-l-dopa] (H-[dPhg]-[Dopa]-OH), for which the recovery at 90 min, 0.02 mg/ml in data set [1] (male, Wistar, rat, intestinal mucosa suspension, 90 min of incubation, read-out: Recovery after incubation with intestinal mucosal suspension) is ~100%. In addition, in data set [2] (iv), the AUC is 1040 ng·h/mL, the half-life was found to be 4.23 ± 1.22 h, the clearance was determined as 180 ± 60 mL/min/kg and the Vd was found to be 11 ± 5.08 L/kg. Moreover, in data set [2] (po), the AUC was 481 ng·h/mL, the Tmax was 0.638 h and the half-life came to 2.38 ± 0.395 h. Besides, in data set [2] (i.v., rats), the “Systemic bioavailability (AUC), times lower than that of l-dopa” value is listed as 7 times. Besides, the “Fraction of absorption (BA)” value in data set [2] is listed as 27.58 ± 4.56%. Moreover, in data set [2] (setting [6]), the Clp amounted to 290 ± 100 mL/min/kg and the Vdss came to 35.7 ± 17.1 L/kg. In data set [2] (rats, oral), the “Fraction of oral absorption, fold higher than that of l-dopa” value is 31 fold and the “Oral bioavailability, times higher than that of l-dopa” value is listed as 31.7 times. Further, the “Time at which striatal dopamine had not reached plateau” value in the data set with striatal dopamine is > 3.5 h. Further, the Striatal dopamine level result in the data set with striatal dopamine (anesthetized rats, dialysates at 10 min intervals) is listed as “increased gradually”. Moreover, the “Steady-state plasma concentration after perfusion, molar ratio, higher than that of l-dopa” value in data set [3] (jejunal perfusion, rats) stood at 31.1 fold. For the same compound, in data set [3], the Blood concentration turned out to be 64.6 ± 5.40 µg/mL. In addition, in data set [3] (steady-state, jejunal perfusion), the Molar ratio of blood concentration was found to be 31.1.
Turning to `NCC(=O)N1CCC[C@H]1C(=O)O` [l-Gly-l-Pro] (H-Gly-Pro-OH), the “Inhibition of BBMV uptake of d-phenylglycine-l-dopa by added competitor” value (“Inhibition” below) in data set [4] was “significantly inhibited”.
On to `N[C@@H](Cc1ccc(O)c(O)c1)C(=O)O` [l-dopa, reference compound], for which, in data set [2] (iv), the AUC is 7660 ng·h/mL, the half-life was 1.69 ± 0.462 h, the clearance is 20 ± 20 mL/min/kg and the Vd amounted to 1.22 ± 0.89 L/kg. For the same compound, in data set [2] (po), the area under the curve (AUC) is 456 ng·h/mL, the Tmax is 0.417 h and the half-life was found to be 3.08 ± 0.77 h. In addition, in data set [2], the “Fraction of absorption (BA)” value came out at 0.87 ± 0.24%. Moreover, in data set [2] (setting [6]), the Clp amounted to 10 ± 0 mL/min/kg. For the same compound, in data set [3], the Blood concentration is given as 1.24^a μg/ml. Moreover, in data set [5], the “Reduction in rotation (mean ± SE %)” value was found to be 9.9 ± 1.4%.
As to `CC1=C(C(=O)O)N2C(=O)[C@@H](NC(=O)[C@H](N)C3=CCC=CC3)[C@H]2SC1` [cephradine], in data set [4], the “Inhibition” value is recorded as “significantly inhibited”.
`NCC(=O)N[C@@H](Cc1ccccc1)C(=O)O` [l-Gly-l-Phe, reference compound] (H-Gly-Phe-OH): the “Recovery after incubation with intestinal mucosal suspension” value in data set [1] (2 min of incubation) amounted to 50%. Also, in data set [4], the “Inhibition” value was “significantly inhibited”.
Consider `N[C@@H](Cc1ccccc1)C(=O)O` [l-Phe], for which the “Inhibition” value in data set [4] is given as “less inhibited”.
